Experimental data reported in article PMC4744035, “In Vivo, In Vitro, and In Silico Characterization of Peptoids as Antimicrobial Agents” (PLoS ONE, 2016).
Converted amounts (≈) assume the structure as drawn. Square brackets hold non-standard residues; d marks the D form. Peptide text beside a SMILES is read from it. Nspe = C[C@H](NCC(=O)O)c1ccccc1; Nlys = NCCCCNCC(=O)O

Columns and labels:
[1] = test system: K. pneumonia 61962 (ESBL); test: microbe, parasite or virus in culture; conditions: K. pneumonia 61962 (ESBL)
Summary of the method: (§1)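 Clinical and lab strains were tested by modified broth microdilution in Mueller Hinton medium at 2–7 x 10^5 CFU/mL.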

E. coli 63103 (ESBL) = test: microbe, parasite or virus in culture; conditions: E. coli 63103 (ESBL)
Summary of the method: as §1

[2] = test system: P. aeruginosa H103 (wild type); test: microbe, parasite or virus in culture; conditions: P. aeruginosa H103 (wild type)
Summary of the method: as §1

P. aeruginosa 198 (MDR) = test: microbe, parasite or virus in culture; conditions: P. aeruginosa 198 (MDR)
Summary of the method: as §1

E. faecium T62764 (VRE) = test: microbe, parasite or virus in culture; conditions: E. faecium T62764 (VRE)
Summary of the method: as §1

P. maltophilia ATCC13637 = test: microbe, parasite or virus in culture; conditions: P. maltophilia ATCC13637
Summary of the method: as §1

P. aeruginosa 213 (MDR) = test: microbe, parasite or virus in culture; conditions: P. aeruginosa 213 (MDR)
Summary of the method: as §1

[3] = test system: P. aeruginosa H1030 (MDR); test: microbe, parasite or virus in culture; conditions: P. aeruginosa H1030 (MDR)
Summary of the method: as §1

[4] = test system: K. pneumonia 63575 (ESBL); test: microbe, parasite or virus in culture; conditions: K. pneumonia 63575 (ESBL)
Summary of the method: as §1

E. faecalis ATCC29212 = test: microbe, parasite or virus in culture; conditions: E. faecalis ATCC29212
Summary of the method: as §1

P. aeruginosa 9 (MDR) = test: microbe, parasite or virus in culture; conditions: P. aeruginosa 9 (MDR)
Summary of the method: as §1

[5] = test system: P. aeruginosa LES400 (MDR); test: microbe, parasite or virus in culture; conditions: P. aeruginosa LES400 (MDR)
Summary of the method: as §1

[6] = test system: E. cloacae 218R Class C β-lactamase; test: microbe, parasite or virus in culture; conditions: E. cloacae 218R Class C β-lactamase
Summary of the method: as §1

E. faecalis W61950 (VRE) = test: microbe, parasite or virus in culture; conditions: E. faecalis W61950 (VRE)
Summary of the method: as §1

E. faecium mic80 (VRE) = test: microbe, parasite or virus in culture; conditions: E. faecium mic80 (VRE)
Summary of the method: as §1

S. aureus C623 (MRSA) = test: microbe, parasite or virus in culture; conditions: S. aureus C623 (MRSA)
Summary of the method: as §1

E. coli 64771 (ESBL) = test: microbe, parasite or virus in culture; conditions: E. coli 64771 (ESBL)
Summary of the method: as §1

E. faecalis F43559 (VRE) = test: microbe, parasite or virus in culture; conditions: E. faecalis F43559 (VRE)
Summary of the method: as §1

S. aureus ATCC25923 = test: microbe, parasite or virus in culture; conditions: S. aureus ATCC25923
Summary of the method: as §1

S. aureus (ATCC 25923) = test: Murine model of invasive S. aureus infection; type: in vivo, CD1 mice; conditions: mice, 4 mg/kg
Method: Animal experiments were performed in accordance with University of British Columbia Care Ethics Committee approval and guidelines as per animal care certificate #A04-0020. Female CD1 mice (6–8 week old) were weighed, marked, and injected with 200 μL of S. aureus (ATCC 25923) ~10^9 CFU/mouse suspended in Mueller Hinton broth containing 5% mucin and injected intraperitoneally. Four hours after infection, animals were treated with 4 mg/kg or 100μg per mouse of peptoid 1 (experimental group; n = 10) or an equivalent volume of saline (control group; n = 10). All animals were monitored two hours after each injection step, they were also evaluated at the end of the working day and the next morning a couple of hours prior to the experimental endpoint. Humane endpoints criteria; immobilization and shaking, were put down but none of the test subjects were evaluated to reach these endpoints prior to the experimental endpoint. The mice were euthanized 24 hours post-infection using CO2. The peritoneal cavity was exposed and washed with 5 mL PBS. […] Plates were incubated overnight at 37°C and colonies were counted the following day. […] The statistical differences between peptide treated and naïve mice were assessed using PRISM® (GraphPad Software Inc., San Diego, CA) using contingency tables Chi-square test, with a confidence interval of 99%. […]

Molecule `C[C@@H](c1ccccc1)N(CC(N)=O)C(=O)CN(C(=O)CN(CCCCN)C(=O)CN(C(=O)CN(C(=O)CN(CCCCN)C(=O)CN(C(=O)CN(C(=O)CN(CCCCN)C(=O)CN(C(=O)CN(C(=O)CNCCCCN)[C@@H](C)c1ccccc1)[C@@H](C)c1ccccc1)[C@@H](C)c1ccccc1)[C@@H](C)c1ccccc1)[C@@H](C)c1ccccc1)[C@@H](C)c1ccccc1)[C@@H](C)c1ccccc1` [Peptoid 1, H-(NLys-Nspe-Nspe)4-NH2] (H-[Nlys][Nspe][Nspe][Nlys][Nspe][Nspe][Nlys][Nspe][Nspe][Nlys][Nspe][Nspe]-NH2) has an MIC [1] of 4 µg/mL (≈ 2.2 µM), an MIC (E. coli 63103 (ESBL)) of 2 µg/mL (≈ 1.1 µM) and an MIC [2] of 2 µg/mL (≈ 1.1 µM). It also gave an MIC (P. aeruginosa 198 (MDR)) of 4 µg/mL (≈ 2.2 µM), an MIC (E. faecium T62764 (VRE)) of 2 µg/mL (≈ 1.1 µM) and an MIC (P. maltophilia ATCC13637) of 2 µg/mL (≈ 1.1 µM). It also gave an MIC (P. aeruginosa 213 (MDR)) of 4 µg/mL (≈ 2.2 µM), an MIC [3] of 4 µg/mL (≈ 2.2 µM) and an MIC [4] of 4 µg/mL (≈ 2.2 µM). For the same molecule, the MIC (E. faecalis ATCC29212) was 2 µg/mL (≈ 1.1 µM), the MIC (P. aeruginosa 9 (MDR)) was 16 µg/mL (≈ 8.79 µM) and the MIC [5] was 2 µg/mL (≈ 1.1 µM). It also gave an MIC [6] of 2 µg/mL (≈ 1.1 µM), an MIC (E. faecalis W61950 (VRE)) of 8 µg/mL (≈ 4.4 µM) and an MIC (E. faecium mic80 (VRE)) of 2 µg/mL (≈ 1.1 µM). For the same molecule, the MIC (S. aureus C623 (MRSA)) was 2 µg/mL (≈ 1.1 µM), the MIC (E. coli 64771 (ESBL)) was 2 µg/mL (≈ 1.1 µM) and the MIC (E. faecalis F43559 (VRE)) was 4 µg/mL (≈ 2.2 µM). For the same molecule, the MIC (S. aureus ATCC25923) was 2 µg/mL (≈ 1.1 µM) and the toxicity (S. aureus (ATCC 25923)) was “no medium-term toxicity”.
